Assay results taken from the NIST ThermoML archive (doi:10.1021/je034162x).

Conditions: 101.33 kPa, Liquid, Hot wire method

C=CCCCC [hex-1-ene]
Conditions | thermal conductivity [W/m/K] | thermal diffusivity [m2/s]
259.93 K | 0.1304 | –
260.19 K | 0.1305 | –
260.47 K | 0.1303 | –
261.24 K | – | 9.12e-08
262.13 K | – | 9.15e-08
263.04 K | – | 9.14e-08
275.98 K | 0.1247 | –
276.28 K | 0.1249 | –
276.6 K | 0.1245 | –
277.38 K | – | 8.63e-08
278.3 K | – | 8.69e-08
279.25 K | – | 8.67e-08
295.84 K | 0.1181 | –
296.26 K | 0.1178 | –
296.53 K | 0.1179 | –
297.34 K | – | 8.25e-08
298.59 K | – | 8.22e-08
299.33 K | – | 8.2e-08
301.27 K | 0.1161 | –
301.73 K | 0.116 | –
301.96 K | 0.1158 | –
302.77 K | – | 8.05e-08
304.08 K | – | 8.06e-08
304.81 K | – | 8.04e-08
314.67 K | 0.1119 | –
315.04 K | 0.1115 | –
315.38 K | 0.1112 | –
316.21 K | – | 7.67e-08
317.27 K | – | 7.71e-08
318.31 K | – | 7.68e-08
329.14 K | 0.1071 | –
329.53 K | 0.107 | –
329.89 K | 0.1068 | –
330.76 K | – | 7.42e-08
331.81 K | – | 7.39e-08
332.96 K | – | 7.4e-08

[2H]C1([2H])C([2H])([2H])C([2H])([2H])C([2H])([2H])C([2H])([2H])C1([2H])[2H] [cyclohexane-d12]
Conditions | thermal conductivity [W/m/K] | thermal diffusivity [m2/s]
280.46 K | 0.1163 | –
280.63 K | 0.1162 | –
280.74 K | 0.1161 | –
280.97 K | – | 6.83e-08
281.35 K | – | 6.85e-08
281.6 K | – | 6.81e-08
291.18 K | 0.1133 | –
291.34 K | 0.1133 | –
291.45 K | 0.1132 | –
291.65 K | – | 6.5e-08
292.04 K | – | 6.54e-08
292.29 K | – | 6.53e-08
303.67 K | 0.11 | –
303.83 K | 0.1099 | –
303.92 K | 0.1098 | –
304.14 K | – | 6.23e-08
304.49 K | – | 6.22e-08
304.72 K | – | 6.19e-08
315.91 K | 0.1067 | –
316.06 K | 0.1066 | –
316.17 K | 0.1066 | –
316.35 K | – | 5.91e-08
316.71 K | – | 5.93e-08
316.96 K | – | 5.96e-08
326.3 K | 0.1042 | –
326.44 K | 0.104 | –
326.54 K | 0.104 | –
326.75 K | – | 5.75e-08
327.08 K | – | 5.73e-08
327.31 K | – | 5.72e-08

Cc1ccc(C)c(C)c1 [1,2,4-trimethylbenzene]
Conditions | thermal conductivity [W/m/K] | thermal diffusivity [m2/s]
257.58 K | 0.1345 | –
257.79 K | 0.1344 | –
257.93 K | 0.1344 | –
258.32 K | – | 8.89e-08
258.85 K | – | 8.91e-08
259.23 K | – | 8.92e-08
276.33 K | 0.1314 | –
276.54 K | 0.1313 | –
276.69 K | 0.1312 | –
277.09 K | – | 8.61e-08
277.61 K | – | 8.58e-08
277.99 K | – | 8.6e-08
283.32 K | 0.1301 | –
283.54 K | 0.13 | –
283.68 K | 0.1299 | –
284.07 K | – | 8.48e-08
284.63 K | – | 8.52e-08
284.98 K | – | 8.47e-08
295.54 K | 0.1277 | –
295.76 K | 0.1277 | –
295.91 K | 0.1275 | –
296.3 K | – | 8.26e-08
296.84 K | – | 8.28e-08
297.21 K | – | 8.25e-08
312.75 K | 0.1244 | –
312.98 K | 0.1242 | –
313.13 K | 0.1241 | –
313.53 K | – | 8e-08
314.08 K | – | 8e-08
314.44 K | – | 7.96e-08
330.69 K | 0.1205 | –
330.93 K | 0.1205 | –
331.09 K | 0.1204 | –
331.46 K | – | 7.65e-08
332.04 K | – | 7.69e-08
332.43 K | – | 7.68e-08

CC(C)=C(C)C [2,3-dimethyl-2-butene]
Conditions | thermal conductivity [W/m/K] | thermal diffusivity [m2/s]
258.89 K | 0.1356 | –
259.17 K | 0.1355 | –
259.37 K | 0.1354 | –
260.14 K | – | 9.38e-08
260.96 K | – | 9.41e-08
261.54 K | – | 9.41e-08
278.21 K | 0.1285 | –
278.5 K | 0.1283 | –
278.72 K | 0.1283 | –
279.54 K | – | 8.88e-08
280.38 K | – | 8.85e-08
281 K | – | 8.85e-08
294.09 K | 0.1228 | –
294.4 K | 0.1226 | –
294.63 K | 0.1225 | –
295.49 K | – | 8.48e-08
296.37 K | – | 8.44e-08
297.02 K | – | 8.45e-08
312.76 K | 0.1162 | –
313.09 K | 0.116 | –
313.34 K | 0.1159 | –
314.2 K | – | 7.96e-08
315.15 K | – | 7.95e-08
315.82 K | – | 7.94e-08
322.4 K | 0.1128 | –
322.74 K | 0.1126 | –
322.98 K | 0.1125 | –
323.81 K | – | 7.58e-08
324.73 K | – | 7.56e-08
325.39 K | – | 7.54e-08
326.42 K | 0.1116 | –
326.77 K | 0.1115 | –
327.02 K | 0.1114 | –
327.89 K | – | 7.6e-08
328.9 K | – | 7.63e-08
329.57 K | – | 7.59e-08

C1=CCCCC1 [cyclohexene]
Conditions | thermal conductivity [W/m/K] | thermal diffusivity [m2/s]
257.22 K | 0.1406 | –
257.42 K | 0.1404 | –
257.57 K | 0.1404 | –
257.97 K | – | 1.01e-07
258.49 K | – | 1.01e-07
258.86 K | – | 1.01e-07
275.37 K | 0.1348 | –
275.58 K | 0.1346 | –
275.73 K | 0.1346 | –
276.12 K | – | 9.55e-08
276.65 K | – | 9.55e-08
277.03 K | – | 9.56e-08
295.57 K | 0.1284 | –
295.77 K | 0.1282 | –
295.92 K | 0.1281 | –
296.28 K | 0.1278 | –
296.29 K | – | 8.83e-08
296.49 K | 0.1277 | –
296.65 K | 0.1276 | –
296.77 K | – | 8.78e-08
297.03 K | – | 8.88e-08
297.15 K | – | 8.79e-08
297.55 K | – | 8.87e-08
297.94 K | – | 8.88e-08
311.67 K | 0.1231 | –
311.89 K | 0.1229 | –
312.04 K | 0.1228 | –
312.42 K | – | 8.46e-08
312.96 K | – | 8.46e-08
313.32 K | – | 8.42e-08
327.85 K | 0.118 | –
328.07 K | 0.1178 | –
328.22 K | 0.1177 | –
328.59 K | – | 7.97e-08
329.13 K | – | 7.97e-08
329.49 K | – | 7.94e-08
